Experimental data as given in patent publication US20170150719A1, “FUNGICIDAL PYRAZOLES AND THEIR MIXTURES” (E I DU PONT DE NEMOURS AND COMPANY, priority 2010, published 2017).
Marks after values point to notes of the source that are not given here.

What was measured:
[1] = tested on: Septoria tritici; assay: Test F: wheat leaf blotch, preventive spray on wheat seedlings, visual disease rating; type: in vivo; conditions: 100 = 100% disease control; for Test F rating (% disease control): preventive spray, rating without asterisk
Description: (§1) A hyphen (-) indicates no test results.

[2] = tested on: Puccinia recondita f. sp. tritici; assay: Test G: wheat leaf rust, spray after inoculation (curative) on wheat seedlings, visual disease rating; type: in vivo; conditions: 100 = 100% disease control; for Test G rating (% disease control): spray after inoculation, rating without asterisk
Description: as §1

[3] = tested on: Puccinia recondita f. sp. tritici; assay: Test H: wheat leaf rust, preventive spray on wheat seedlings, visual disease rating; conditions: 100 = 100% disease control; for Test H rating (disease control) / Test H rating (% disease control): wheat leaf rust; for Test H rating (disease control): sprayed the day before inoculation; for Test H rating (% disease control): preventive spray, rating without asterisk
[4] = tested on: Botrytis cinerea; assay: Test A: tomato Botrytis, preventive spray on tomato seedlings, visual disease rating; conditions: 100 = 100% disease control; for Test A rating (disease control) / Test A rating (% disease control): tomato Botrytis; for Test A rating (% disease control): preventive spray, 0 = no control relative to controls, rating without asterisk
[5] = tested on: Alternaria solani; assay: Test B: tomato early blight, preventive spray on tomato seedlings, visual disease rating; conditions: for Test B rating (disease control) / Test B rating (% disease control): tomato early blight, 100 = 100% disease control; for Test B rating (disease control): 0 = no disease control relative to the controls; for Test B rating (% disease control): preventive spray, rating without asterisk
[6] = tested on: Blumeria graminis f. sp. tritici; assay: Test I: wheat powdery mildew, preventive spray on wheat seedlings, visual disease rating; conditions: for Test I rating (% disease control): preventive spray, rating without asterisk
[7] = tested on: Septoria nodorum; assay: Test E: Septoria glume blotch, preventive spray on wheat seedlings, visual disease rating; conditions: 100 = 100% disease control; for Test E rating (disease control): Septoria glume blotch; for Test E rating (% disease control): Septoria glume blotch on wheat, preventive spray, rating without asterisk
[8] = 0 = no disease control relative to the controls
[9] = sprayed after inoculation, 0 = no disease control
[10] = wheat powdery mildew, 100 = 100% disease control, 0 = no disease control relative to the controls
[11] = wheat powdery mildew, 100 = 100% disease control

COc1ccc(-c2c(C)nn(C)c2Nc2c(F)cccc2F)c(Cl)c1 [compound 43]
Test F rating (disease control) [1, 8]: 100% | Test G rating (disease control) [2, 9]: 95% | Test H rating (disease control) ([3]; 0 = no disease control): 100% | Test A rating (disease control) [4, 8]: 98% | Test B rating (disease control) [5]: 100% | Test I rating (disease control) [6, 10]: 98% | Test E rating (disease control) [7, 8]: 0%

Cc1nn(C)c(Nc2c(F)cc(F)cc2Cl)c1-c1ccc(Cl)cc1Cl [compound 156]
Test F rating (disease control) [1, 8]: 100% | Test G rating (disease control) [2, 9]: 31% | Test H rating (disease control) ([3]; 0 = no disease control): 99% | Test A rating (disease control) [4, 8]: 100% | Test B rating (disease control) [5]: 99% | Test I rating (disease control) [6, 10]: 99% | Test E rating (disease control) [7, 8]: 73%

Cc1nn(C)c(Nc2c(F)cc(I)cc2F)c1-c1ccc(F)cc1Br [compound 218]
Test F rating (% disease control) [1]: 100% | Test G rating (% disease control) [2]: 0% | Test H rating (% disease control) [3]: 99% | Test A rating (% disease control) [4]: 100% | Test B rating (% disease control) [5]: 68% | Test I rating (% disease control) [6, 11]: 99% | Test E rating (% disease control) [7]: 86%

CCOc1cc(F)c(-c2c(C)nn(C)c2Nc2c(F)cc(Cl)cc2Cl)c(F)c1 [compound 198]
Test F rating (% disease control) [1]: 100% | Test G rating (% disease control) [2]: 9% | Test H rating (% disease control) [3]: 80% | Test A rating (% disease control) [4]: 100% | Test B rating (% disease control) [5]: 100% | Test I rating (% disease control) [6, 11]: 96% | Test E rating (% disease control) [7]: 60%

Cc1nn(C)c(Nc2c(F)cc(F)cc2I)c1-c1ccc(F)cc1F [compound 214]
Test F rating (% disease control) [1]: 100% | Test G rating (% disease control) [2]: 99% | Test H rating (% disease control) [3]: 99% | Test A rating (% disease control) [4]: 100% | Test B rating (% disease control) [5]: 100% | Test I rating (% disease control) [6, 11]: 100% | Test E rating (% disease control) [7]: 99%

COc1cc(F)c(-c2c(C)nn(C)c2Nc2c(F)cc(C#N)cc2F)c(F)c1 [compound 20]
Test F rating (disease control) [1, 8]: 99% | Test G rating (disease control) [2, 9]: 0% | Test H rating (disease control) ([3]; 0 = no disease control): 68% | Test A rating (disease control) [4, 8]: 100% | Test B rating (disease control) [5]: 100% | Test I rating (disease control) [6, 10]: 13% | Test E rating (disease control) [7, 8]: 40%

Cc1nn(C)c(Nc2c(Cl)cc(Cl)cc2Cl)c1-c1ccc(F)cc1Br [compound 174]
Test F rating (disease control) [1, 8]: 100% | Test G rating (disease control) [2, 9]: 0% | Test H rating (disease control) ([3]; 0 = no disease control): 99% | Test A rating (disease control) [4, 8]: 95% | Test B rating (disease control) [5]: 0% | Test I rating (disease control), value marked * ([6]; wheat powdery mildew, rating marked with asterisk (*), not explained in the text shown): 99* % | Test E rating (disease control) [7, 8]: 0%

Cc1nn(C)c(Oc2ccc(C#N)cc2Br)c1-c1ccc(F)cc1F [Compound 139, 3-bromo-4-[[4-(2,4-difluorophenyl)-1,3-dimethyl-1H-pyrazol-5-yl]oxy]benzonitrile]
pest or weed control at 200 µg/mL ([1]; Zymoseptoria tritici, 0 = no disease control relative to the controls): 100% | pest or weed control at 200 µg/mL [2, 9]: 9% | pest or weed control at 200 µg/mL ([3]; read-out: Test H rating (disease control), wheat leaf rust, sprayed the day before inoculation, 0 = no disease control): 89% | pest or weed control at 200 µg/mL ([4]; Botrytis cinerea, in Solanum lycopersicum, read-out: Test A rating (disease control), tomato Botrytis, 0 = no disease control relative to the controls): 82% | pest or weed control at 200 µg/mL ([5]; Alternaria solani, in Solanum lycopersicum, read-out: Test B rating (disease control)): 0% | pest or weed control at 200 µg/mL ([6]; Blumeria graminis, in Triticum aestivum, read-out: Test I rating (disease control), wheat powdery mildew, 100 = 100% disease control, 0 = no disease control relative to the controls): 0% | pest or weed control at 200 µg/mL ([7]; Parastagonospora nodorum, in Triticum aestivum, read-out: Test E rating (disease control), Septoria glume blotch, 0 = no disease control relative to the controls): 0%

Cc1nn(C)c(Nc2c(F)cc(F)cc2F)c1-c1ccc(Cl)cc1Cl [compound 18]
Test F rating (disease control) [1, 8]: 99% | Test G rating (disease control) [2, 9]: 95% | Test H rating (disease control) ([3]; 0 = no disease control): 99% | Test A rating (disease control) [4, 8]: 100% | Test B rating (disease control) [5]: 98% | Test I rating (disease control) [6, 10]: 97% | Test E rating (disease control) [7, 8]: 98%
